Results reported in patent US10413505B1, “Pharmaceutical compositions and methods of using the same” (priority 2017, dated 2019).

Key:
[1] = Example 2 urinary pharmacokinetics, normal renal function vs severe renal impairment; settings: single intranasal 160 mg cocaine HCl; for 0 to 32 hour urinary recovery (geometric mean) / 0 to 32 hour urinary recovery (mean) / 0 to 32 hour urinary recovery (median): metabolites as cocaine equivalents
Procedure: For the urine analysis of cocaine, BE, and EME, individual urinary recoveries for each analyte were determined over each collection interval as the product of the urine concentration times the urine volume. The total recoveries were determined as the sum of the recoveries over all the intervals. Total urinary recoveries were also expressed as the percentage of the administered dose, after correction for the molecular weight of each analyte. The renal clearances of cocaine, BE, and EME were determined as the urinary recovery (in μg) divided by the plasma AUC over the same time interval (the longest period for which both plasma and urine measurements were available).
Urine was collected prior to dosing and from 0-2, 2-4, 4-8, 8-12, 12-24, and 24-32 hours after the beginning of dose application. […] Testing methods used were consistent with those used by inVentiv Health Clinical Lab, Inc., Miami, Fla., U.S.A. Urinary pharmacokinetic parameters included total urinary recovery (μg), urinary recovery as a percentage of dose, and CLr.

[2] = Example 1 urinary pharmacokinetics after intranasal administration; type: in vivo, human; settings: healthy subjects; single intranasal 160 mg cocaine HCl; urine 0-12 h; metabolites as cocaine equivalents
Procedure: A single dose of a pharmaceutical composition was administered to both nostrils using cottonoid pledgets. […] Each pledget absorbed approximately 1 mL of pharmaceutical composition (i.e., 40 mg cocaine hydrochloride). Two soaked pledgets were placed into each nasal cavity of the subject and against the anterior septum for 20 minutes; thus, a total dose of 160 mg of cocaine hydrochloride was administered.
Urine samples were collected pre-dose and at the following intervals from the start of intranasal application of the pharmaceutical composition: 0-2 hours, 2-4 hours, 4-8 hours, and 8-12 hours. […] A 25-μL aliquot of each urine sample was processed by liquid-liquid extraction.
Urinary pharmacokinetic parameters were analyzed using noncompartmental methods.

[3] = Example 3 plasma pharmacokinetics, normal hepatic function vs hepatic impairment; settings: for AUC0→t (Geometric mean) / AUC0→t (Max) / AUC0→t (Mean) / AUC0→t (Median) / AUC0→t (Min) / AUC0→∞ (Geometric mean) / AUC0→∞ (Max) / AUC0→∞ (Mean) / AUC0→∞ (Median) / AUC0→∞ (Min) / Clast (Geometric mean) / Clast (Max) / Clast (Mean) / Clast (Median) / Clast (Min) / Cmax (Geometric mean) / Cmax (Max) / Cmax (Mean) / Cmax (Median) / Cmax (Min) / Tlast (Geometric mean) / Tlast (Max) / Tlast (Mean) / Tlast (Median) / Tlast (Min) / Tmax (Geometric mean) / Tmax (Max) / Tmax (Mean) / Tmax (Median) / Tmax (Min) / t1/2 (Geometric mean) / t1/2 (Max) / t1/2 (Mean) / t1/2 (Median) / t1/2 (Min): single intranasal 160 mg cocaine HCl, plasma
[4] = normal renal function, listed as Benzoylecgonine
[5] = severe renal impairment, listed as Benzoylecgonine

In the case of `CN1[C@H]2CC[C@@H]1[C@@H](C(=O)O)[C@@H](OC(=O)c1ccccc1)C2` [BE, benzoylecgonine], the “0-32 h Urinary Recovery (geometric mean)” value ([1]; normal renal function) is reported as 2106 µg, the “0-32 h Urinary Recovery (mean)” value ([1]; normal renal function) is reported as 2764 µg and the “0-32 h Urinary Recovery (median)” value ([1]; normal renal function) is reported as 1483 µg. The “Renal Clearance, CLr (geometric mean)” value ([1]; normal renal function) was 3.61 L/h, the “Renal Clearance, CLr (mean)” value ([1]; normal renal function) was 3.77 L/h and the “Renal Clearance, CLr (median)” value ([1]; normal renal function) was 4.01 L/h. The “Renal Clearance, geometric mean” value ([1]; normal renal function) was 60.14 mL/min, the “Renal Clearance, mean” value ([1]; normal renal function) was 62.78 mL/min and the “Renal Clearance, median” value ([1]; normal renal function) was 66.86 mL/min. For the same compound, the “0 to 32 hour urinary recovery (geometric mean)” value ([1]; normal renal function) was 1.55 % of administered dose, the “0 to 32 hour urinary recovery (mean)” value ([1]; normal renal function) was 2.03 % of administered dose and the “0 to 32 hour urinary recovery (median)” value ([1]; normal renal function) was 1.089 % of administered dose. The “0 to 32 hour urinary recovery (geometric mean)” value [1, 4] was 1.546 % of administered dose, the “0 to 32 hour urinary recovery (mean)” value [1, 4] was 2.029 % of administered dose and the “0-32 h Urinary Recovery (geometric mean)” value ([1]; severe renal impairment) was 3126 µg. For the same compound, the “0-32 h Urinary Recovery (mean)” value ([1]; severe renal impairment) was 3738 µg, the “0-32 h Urinary Recovery (median)” value ([1]; severe renal impairment) was 2709 µg and the “Renal Clearance, CLr (geometric mean)” value ([1]; severe renal impairment) was 0.854 L/h. The “Renal Clearance, CLr (mean)” value ([1]; severe renal impairment) was 0.919 L/h, the “Renal Clearance, CLr (median)” value ([1]; severe renal impairment) was 0.824 L/h and the “Renal Clearance, geometric mean” value ([1]; severe renal impairment) was 14.2 mL/min. For the same compound, the “Renal Clearance, mean” value ([1]; severe renal impairment) was 15.3 mL/min, the “Renal Clearance, median” value ([1]; severe renal impairment) was 13.7 mL/min and the “0 to 32 hour urinary recovery (geometric mean)” value ([1]; severe renal impairment) was 2.29 % of administered dose. The “0 to 32 hour urinary recovery (mean)” value ([1]; severe renal impairment) was 2.74 % of administered dose, the “0 to 32 hour urinary recovery (median)” value ([1]; severe renal impairment) was 1.988 % of administered dose and the “0 to 32 hour urinary recovery (geometric mean)” value [1, 5] was 2.294 % of administered dose. For the same compound, the “0 to 32 hour urinary recovery (mean)” value [1, 5] was 2.744 % of administered dose, the “Total Urinary Recovery (Geometric mean)” value [2] was 713 µg and the “Total Urinary Recovery (Mean)” value [2] was 816 µg. For the same compound, the “Total Urinary Recovery (Median)” value [2] was 769 µg, the “Urinary Recovery (Geometric mean)” value [2] was 0.467 % dose and the “Urinary Recovery (Mean)” value [2] was 0.534 % dose. The “Urinary Recovery (Median)” value [2] was 0.504 % dose, the “AUClast, times higher than normal subjects” value ([3]; Grade B hepatic impairment) was “approximately 2.4 times” and the “AUClast, percent increased vs normal” value ([3]; Grade C hepatic impairment) was 12%. For the same compound, the “AUC0→t (Geometric mean)” value ([3]; hepatic impairment) was 1235 ng·h/mL, the “AUC0→t (Max)” value ([3]; hepatic impairment) was 3356 ng·h/mL and the “AUC0→t (Mean)” value ([3]; hepatic impairment) was 1402 ng·h/mL. For the same compound, the “AUC0→t (Median)” value ([3]; hepatic impairment) was 1190 ng·h/mL, the “AUC0→t (Min)” value ([3]; hepatic impairment) was 606 ng·h/mL and the “AUC0→∞ (Geometric mean)” value ([3]; hepatic impairment) was 1513 ng·h/mL. For the same compound, the “AUC0→∞ (Max)” value ([3]; hepatic impairment) was 3532 ng·h/mL, the “AUC0→∞ (Mean)” value ([3]; hepatic impairment) was 1724 ng·h/mL and the “AUC0→∞ (Median)” value ([3]; hepatic impairment) was 1448 ng·h/mL. The “AUC0→∞ (Min)” value ([3]; hepatic impairment) was 647 ng·h/mL, the “Clast (Geometric mean)” value ([3]; hepatic impairment) was 14.3 ng/mL and the “Clast (Max)” value ([3]; hepatic impairment) was 42.6 ng/mL. For the same compound, the “Clast (Mean)” value ([3]; hepatic impairment) was 17.6 ng/mL, the “Clast (Median)” value ([3]; hepatic impairment) was 16.6 ng/mL and the “Clast (Min)” value ([3]; hepatic impairment) was 3.33 ng/mL. The “Cmax (Geometric mean)” value ([3]; hepatic impairment) was 67.1 ng/mL, the “Cmax (Max)” value ([3]; hepatic impairment) was 248 ng/mL and the “Cmax (Mean)” value ([3]; hepatic impairment) was 81.2 ng/mL. For the same compound, the “Cmax (Median)” value ([3]; hepatic impairment) was 67.8 ng/mL, the “Cmax (Min)” value ([3]; hepatic impairment) was 27.4 ng/mL and the “Tlast (Geometric mean)” value ([3]; hepatic impairment) was 32.0 h. The “Tlast (Max)” value ([3]; hepatic impairment) was 32.0 h, the “Tlast (Mean)” value ([3]; hepatic impairment) was 32.0 h and the “Tlast (Median)” value ([3]; hepatic impairment) was 32.0 h. The “Tlast (Min)” value ([3]; hepatic impairment) was 1920 min, the “Tmax (Geometric mean)” value ([3]; hepatic impairment) was 6.95 h and the “Tmax (Max)” value ([3]; hepatic impairment) was 12.0 h. For the same compound, the “Tmax (Mean)” value ([3]; hepatic impairment) was 7.50 h, the “Tmax (Median)” value ([3]; hepatic impairment) was 7.00 h and the “Tmax (Min)” value ([3]; hepatic impairment) was 240 min. For the same compound, the “t1/2 (Geometric mean)” value ([3]; hepatic impairment) was 12.3 h, the “t1/2 (Max)” value ([3]; hepatic impairment) was 31.0 h and the “t1/2 (Mean)” value ([3]; hepatic impairment) was 14.0 h. For the same compound, the “t1/2 (Median)” value ([3]; hepatic impairment) was 12.1 h, the “t1/2 (Min)” value ([3]; hepatic impairment) was 399 min and the “AUC0→t (Geometric mean)” value ([3]; normal hepatic function) was 603 ng·h/mL. The “AUC0→t (Max)” value ([3]; normal hepatic function) was 2969 ng·h/mL, the “AUC0→t (Mean)” value ([3]; normal hepatic function) was 784 ng·h/mL and the “AUC0→t (Median)” value ([3]; normal hepatic function) was 523 ng·h/mL. For the same compound, the “AUC0→t (Min)” value ([3]; normal hepatic function) was 144 ng·h/mL, the “AUC0→∞ (Geometric mean)” value ([3]; normal hepatic function) was 667 ng·h/mL and the “AUC0→∞ (Max)” value ([3]; normal hepatic function) was 3446 ng·h/mL. The “AUC0→∞ (Mean)” value ([3]; normal hepatic function) was 869 ng·h/mL, the “AUC0→∞ (Median)” value ([3]; normal hepatic function) was 568 ng·h/mL and the “AUC0→∞ (Min)” value ([3]; normal hepatic function) was 182 ng·h/mL. For the same compound, the “Clast (Geometric mean)” value ([3]; normal hepatic function) was 4.33 ng/mL, the “Clast (Max)” value ([3]; normal hepatic function) was 31.6 ng/mL and the “Clast (Mean)” value ([3]; normal hepatic function) was 6.17 ng/mL. The “Clast (Median)” value ([3]; normal hepatic function) was 3.71 ng/mL, the “Clast (Min)” value ([3]; normal hepatic function) was 2.02 ng/mL and the “Cmax (Geometric mean)” value ([3]; normal hepatic function) was 43.7 ng/mL. For the same compound, the “Cmax (Max)” value ([3]; normal hepatic function) was 171 ng/mL, the “Cmax (Mean)” value ([3]; normal hepatic function) was 57.5 ng/mL and the “Cmax (Median)” value ([3]; normal hepatic function) was 35.5 ng/mL. The “Cmax (Min)” value ([3]; normal hepatic function) was 7.03 ng/mL, the “Tlast (Geometric mean)” value ([3]; normal hepatic function) was 32.0 h and the “Tlast (Max)” value ([3]; normal hepatic function) was 32.0 h. For the same compound, the “Tlast (Mean)” value ([3]; normal hepatic function) was 32.0 h, the “Tlast (Median)” value ([3]; normal hepatic function) was 32.0 h and the “Tlast (Min)” value ([3]; normal hepatic function) was 1920 min. The “Tmax (Geometric mean)” value ([3]; normal hepatic function) was 1.96 h, the “Tmax (Max)” value ([3]; normal hepatic function) was 8.00 h and the “Tmax (Mean)” value ([3]; normal hepatic function) was 2.38 h. The “Tmax (Median)” value ([3]; normal hepatic function) was 1.63 h, the “Tmax (Min)” value ([3]; normal hepatic function) was 60 min and the “t1/2 (Geometric mean)” value ([3]; normal hepatic function) was 9.00 h. For the same compound, the “t1/2 (Max)” value ([3]; normal hepatic function) was 13.1 h, the “t1/2 (Mean)” value ([3]; normal hepatic function) was 9.16 h and the “t1/2 (Median)” value ([3]; normal hepatic function) was 8.91 h. The “t1/2 (Min)” value ([3]; normal hepatic function) was 398 min.
